Among the data in patent US10703764B2, “Benzopiperazine compositions as BET bromodomain inhibitors” (FORMA Therapeutics, Inc., priority 2013, dated 2020) are IC50 values, retold here.

Assay [1] addresses T1, BRD4 BD2 (Homo sapiens, UniProt O60885).
T1 construct: made in house
The experiment in a line: AlphaScreen binding assay, BRD4 Bromodomain 2. In short, it runs like this:
(§1)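 Compound dilution series were mixed with His-tagged BRD4 bromodomain and biotinylated tetra-acetylated H4 (1-21) peptide at pH 7.3 (BD1 and peptide at 50 nM, BD2 and peptide at 100 nM). Donor and acceptor beads were then added, and plates were equilibrated at least 1 h before reading. IC50 values were fitted with a four-parameter logistic model.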
(In general: In Alpha technology, singlet oxygen from a donor bead excites a nearby acceptor bead.)

Assay [2] addresses T2, BRD4 BD1 (Homo sapiens, UniProt O60885).
T2 construct: made in house
The experiment in a line: AlphaScreen binding assay, BRD4 Bromodomain 1. In short, it runs like this: as §1

In general, IC50 refers to the concentration needed to halve the response being measured. Lower therefore signals greater potency in that assay. In the case of `COC(=O)N1c2ccc(-c3cnn(CC(=O)N4CCCCC4)c3)cc2N(C(=O)OC(C)C)C[C@@H]1C` [Example I-629], the values for the IC50 in assay [1] and in assay [2] were 50 to 500 nM and 1000 to 10000 nM, respectively.

Turning to `CC(=O)N1c2ccccc2N(Cc2cccc(OCCN(C)C)c2)C[C@@H]1C` [Example I-908], the IC50 in assay [1] was 50 to 500 nM; in assay [2], above 10000 nM.

For the compound `CC(=O)N1c2ccc(-c3ccc(S(C)(=O)=O)cc3)cc2N(C(=O)Nc2ccsc2)C[C@@H]1C` [Example I-979], the half-maximal inhibitory concentration (IC50) in assay [1] was 50 to 500 nM; in assay [2], 1000 to 10000 nM.

Take `CC(=O)N1c2ccc(-c3cncc(Cl)c3)cc2N(C(=O)c2ccco2)C[C@@H]1C` [Example I-832]: the concentration for half-maximal inhibition (IC50) was 50 to 500 nM in assay [1] and 1000 to 10000 nM in assay [2].

Regarding `CC(=O)N1c2ccc(-c3ccc(S(C)(=O)=O)cc3)nc2N(C(=O)c2ccco2)C[C@@H]1C` [Example I-300], the figures for the half-maximal inhibitory concentration (IC50) in assay [1] and in assay [2] were 50 to 500 nM and 1000 to 10000 nM, respectively.

`CC(=O)N1c2ccc(-c3cnn(Cc4ccncc4)c3)cc2N(C(=O)C2CC2)C[C@@H]1C` [Example I-118, (S)-1-(4-(cyclopropanecarbonyl)-2-methyl-6-(1-(pyridin-4-ylmethyl)-1H-pyrazol-4-yl)-3,4-dihydroquinoxalin-1(2H)-yl)ethanone]: the half-inhibitory concentration (IC50) in assay [1] fell in the range of 50 to 500 nM; in assay [2], 1000 to 10000 nM.

Take `CC(=O)N1c2ccccc2N(C(=O)CC(C)C)C[C@@H]1C` [Example I-708]: the 50% inhibitory concentration (IC50) in assay [1] was above 500 nM; in assay [2], above 10000 nM.

`CC(=O)N1c2ccccc2N(C(=O)CCN(C)C)C[C@@H]1C` [Example I-693]: the half-maximal inhibitory concentration (IC50) in assay [1] is above 500 nM; in assay [2], above 10000 nM.

As for `CC(=O)N1c2ccccc2N(S(=O)(=O)c2cn(C)c(C)n2)C[C@@H]1C` [Example I-956], the IC50 was above 500 nM in assay [1] and above 10000 nM in assay [2].

Take `CC(=O)N1c2ccccc2N(C(=O)CC2CCN(S(C)(=O)=O)CC2)C[C@@H]1C` [Example I-762]: the figures for the 50% inhibitory concentration (IC50) in assay [1] and in assay [2] were above 500 nM and above 10000 nM, respectively.

Regarding `CC(=O)N1c2ccc(-c3ccc(S(C)(=O)=O)cc3)cc2N(C(=O)C(C)C)C[C@@H]1C` [Example I-242], the IC50 is above 500 nM in assay [1] and above 10000 nM in assay [2].

For the compound `CC(=O)N1c2ccccc2N(C(=O)c2cc3ccncc3o2)C[C@@H]1C` [Example I-777], the IC50 in assay [1] is above 500 nM; in assay [2], above 10000 nM.

For the compound `CC(=O)N1c2ccccc2N(CC2CCCCC2)C[C@@H]1C` [Example I-910], the half-maximal inhibitory concentration (IC50) in assay [1] is above 500 nM; in assay [2] it was above 10000 nM.

For `COC(=O)N1c2ccc(-c3ccc(C4(O)COC4)cc3)cc2N(C(=O)C2CC2)C[C@@H]1C` [Example I-459], the half-inhibitory concentration (IC50) lay in the range of 50 to 500 nM in assay [1] and 1000 to 10000 nM in assay [2].

For the compound `CC(C)OC(=O)N1c2ccc(-c3ccc(S(C)(=O)=O)cc3)cc2N(C(=O)c2ccco2)C[C@@H]1C` [Example I-372], the 50% inhibitory concentration (IC50) in assay [1] was above 500 nM; in assay [2] it was above 10000 nM.

Regarding `CC(=O)N1c2ccc(-c3cccc4cnn(C)c34)cc2N(C(=O)c2ccco2)C[C@@H]1C` [Example I-842], the values for the half-inhibitory concentration (IC50) in assay [1] and in assay [2] were above 500 nM and above 10000 nM, respectively.

For the compound `CC(=O)N1c2ccccc2N(S(=O)(=O)c2ccc(OC(F)(F)F)cc2)C[C@@H]1C` [Example I-939], the 50% inhibitory concentration (IC50) is above 500 nM in assay [1] and above 10000 nM in assay [2].

Regarding `CC(=O)N1c2ccc(-c3ccc(S(C)(=O)=O)cc3)cc2N(C(=O)Nc2ccccc2)C[C@@H]1C` [Example I-964], the results for the concentration for half-maximal inhibition (IC50) in assay [1] and in assay [2] were 50 to 500 nM and 1000 to 10000 nM, respectively.

With `COC(=O)N1c2ccc(-c3cnn(CCO)c3)cc2N(C(=O)Oc2ccccn2)C[C@@H]1C` [Example I-1335], the IC50 is 50 to 500 nM in assay [1] and 1000 to 10000 nM in assay [2].

As to `CC(=O)N1c2ccccc2N(Cc2ccncc2)C[C@@H]1C` [Example I-912], the figures for the IC50 in assay [1] and in assay [2] were above 500 nM and above 10000 nM, respectively.

On to `C[C@H]1CN(c2nc3ccccc3o2)c2cc(-c3cnn(C4CC4)c3)ccc2N1C(=O)C1CC1` [Example I-92, (S)-(4-(benzo[d]oxazol-2-yl)-6-(1-cyclopropyl-1H-pyrazol-4-yl)-2-methyl-3,4-dihydroquinoxalin-1 (2H)-yl)(cyclopropyl)methanone], for which the IC50 in assay [1] fell in the range of 50 to 500 nM; in assay [2] it was 1000 to 10000 nM.

On to `CC(=O)N1c2ccccc2N(C(=O)c2ccc3ncsc3c2)C[C@@H]1C` [Example I-724], for which the 50% inhibitory concentration (IC50) in assay [1] was above 500 nM; in assay [2] it was above 10000 nM.

Consider `CC(=O)N1c2ccccc2N(Cc2ccc(C(F)(F)F)nc2)C[C@@H]1C` [Example I-911], for which the IC50 is above 500 nM in assay [1] and above 10000 nM in assay [2].

As to `CC(=O)N1c2ccc(-c3cccc(C(N)=O)c3)cc2N(C(=O)c2ccco2)C[C@@H]1C` [Example I-856], the values for the 50% inhibitory concentration (IC50) in assay [1] and in assay [2] were below 50 nM and 1000 to 10000 nM, respectively.

As to `CC(=O)N1c2ccc(-c3ccc(C(=O)Nc4ccccc4)cc3)cc2N(C(=O)OC(C)C)C[C@@H]1C` [Example I-535], the half-inhibitory concentration (IC50) lay in the range of 50 to 500 nM in assay [1] and 1000 to 10000 nM in assay [2].

Take `CC(=O)N1c2ccc(-c3ncco3)cc2N(C(=O)c2ccco2)C[C@@H]1C` [Example I-491]: the IC50 in assay [1] lay within 50 to 500 nM; in assay [2], 1000 to 10000 nM.

With `CC(=O)N1c2ccc(-c3cnn(C4COC4)c3)cc2N(C(=O)OC2(C)CC2)C[C@@H]1C` [Example I-76, (S)-1-methylcyclopropyl 4-acetyl-3-methyl-7-(1-(oxetan-3-yl)-1H-pyrazol-4-yl)-3,4-dihydroquinoxaline-1(2H)-carboxylate], the IC50 was 50 to 500 nM in assay [1] and 1000 to 10000 nM in assay [2].

As for `CC(=O)N1c2ccccc2N(S(=O)(=O)c2cccnc2)C[C@@H]1C` [Example I-934], the IC50 in assay [1] is above 500 nM; in assay [2], above 10000 nM.

Regarding `CCc1ccc(CN2C[C@H](C)N(C(C)=O)c3ccccc32)cc1` [Example I-901], the concentration for half-maximal inhibition (IC50) is above 500 nM in assay [1] and above 10000 nM in assay [2].

In the case of `CC(=O)N1c2ccc(-c3ccc(S(C)(=O)=O)cc3)cc2N(C(=O)CC#N)C[C@@H]1C` [Example I-247], the values for the IC50 in assay [1] and in assay [2] were above 500 nM and above 10000 nM, respectively.

With `COC(=O)N1c2ccc(-c3ccc(CS(N)(=O)=O)cc3)cc2N(C(=O)OC(C)C)C[C@@H]1C` [Example I-487], the values for the IC50 in assay [1] and in assay [2] were above 500 nM and 100 to 1000 nM, respectively.

`CC(=O)N1c2ccc(-c3ccc(S(C)(=O)=O)cc3)cc2N(C(=O)OCc2ccccc2)C[C@@H]1C` [Example I-230]: the IC50 in assay [1] was above 500 nM; in assay [2], above 10000 nM.

Consider `CC(=O)N1c2ccc(-c3ccc4c(c3)CCN4S(C)(=O)=O)cc2N(C(=O)Oc2cccnc2)C[C@@H]1C` [Example I-1290], for which the half-inhibitory concentration (IC50) in assay [1] lay within 50 to 500 nM; in assay [2], 1000 to 10000 nM.

In the case of `CC(=O)N1c2ccccc2N(S(=O)(=O)c2cn(C)cn2)C[C@@H]1C` [Example I-961], the IC50 is above 500 nM in assay [1] and above 10000 nM in assay [2].

As for `COC(=O)N1c2ccc(-c3ccc(N4CCCS4(=O)=O)cc3)cc2N(C(=O)OC(C)C)C[C@@H]1C` [Example I-484], the figures for the half-maximal inhibitory concentration (IC50) in assay [1] and in assay [2] were above 500 nM and 100 to 1000 nM, respectively.

Take `CC(=O)N1c2ccc(-c3ccc4[nH]ccc4n3)cc2N(C(=O)c2ccco2)CC1C` (centres unmarked) [Example I-397]: the figures for the concentration for half-maximal inhibition (IC50) in assay [1] and in assay [2] were 50 to 500 nM and 1000 to 10000 nM, respectively.

`CC(=O)N1c2ccccc2N(Cc2ccc(F)cc2F)C[C@@H]1C` [Example I-897]: the figures for the IC50 in assay [1] and in assay [2] were above 500 nM and above 10000 nM, respectively.
